# Where two headings read alike, the source gives them in different places. Residues, ends and D or L forms follow the SMILES beside them.
# Assays:
# [1] = molecular target: HLA-DR1 (DRB1*0101) molecules (Homo sapiens, UniProt P01903+P01911, A100R/D57E/F55L/F60I/F76Y/I96L/L162R/M171V/P40L/Q125E/R42F/V115G/Y59C); assay: Competitive binding assay with recombinant water-soluble HLA-DR1
# [2] = molecular target: HLA-DR4 (DRB1*0401) molecules (Homo sapiens, UniProt P01903+P01911, A100K/A169T/F76Y/I96L/K127E/L162R/M171V/N62H/P40V/Q125Y/R42H/S133A/S149N/S66Y/V115G/V209L/W38E); assay: Competitive binding assay with recombinant water-soluble HLA-DR4
# [3] = Affinity for HLA-DR1 (DRB1*0101) molecules determined by competition with biotinylated competitor HA 306-318, biotinylated competitor HA306-318
# [4] = biotinylated competitor YEAK, read-out: Affinity for HLA-DR1 (DRB1*0101) molecules determined by competition with biotinylated competitor YEAK
# [5] = Affinity for HLA-DR4 (DRB1*0401) molecules determined by competition with biotinylated competitor HA 306-318, biotinylated competitor HA306-318
# [6] = biotinylated competitor YEAK, read-out: Affinity for HLA-DR4 (DRB1*0401) molecules determined by competition with biotinylated competitor YEAK
SMILES,"IC50 [1, 3]","IC50 [1, 4]","IC50 [2, 5]","IC50 [2, 6]"
CC(C)C[C@H](NC(=O)[C@H](CCCCN)NC(=O)[C@H](CC(C)C)NC(=O)[C@@H](NC(=O)[C@H](CC(N)=O)NC(=O)[C@H](CCC(N)=O)NC(=O)[C@H](CCCCN)NC(=O)[C@@H](NC(=O)[C@H](Cc1ccc(O)cc1)NC(=O)[C@H](CCCCN)NC(=O)[C@@H]1CCCN1C(=O)[C@H](C)N)C(C)C)[C@@H](C)O)C(=O)N[C@@H](C)C(=O)N[C@H](C(=O)N[C@@H](C)C(=O)O)[C@@H](C)O [compound 4],13 µM,3.3 µM,26 µM,8.2 µM
C[C@H](N)C(=O)N[C@@H](C)C(=O)N[C@@H](C)C(=O)N[C@@H](Cc1ccc(O)cc1)C(=O)N[C@@H](C)C(=O)N[C@@H](C)C(=O)N[C@@H](C)C(=O)N[C@@H](C)C(=O)N[C@@H](C)C(=O)N[C@@H](C)C(=O)N[C@@H](CCCCN)C(=O)N[C@@H](C)C(=O)N[C@@H](C)C(=O)N[C@@H](C)C(=O)N[C@@H](C)C(=O)O [compound 5] (H-AAAYAAAAAAKAAAA-OH),–,–,7 µM,–
C[C@H](N)C(=O)N[C@@H](CCCCN)C(=O)N[C@@H](CCC(=O)O)C(=O)N[C@@H](Cc1ccc(O)cc1)C(=O)N[C@@H](C)C(=O)N[C@@H](C)C(=O)N[C@@H](C)C(=O)N[C@@H](C)C(=O)N[C@@H](C)C(=O)N[C@@H](C)C(=O)N[C@@H](CCCCN)C(=O)N[C@@H](C)C(=O)N[C@@H](C)C(=O)N[C@@H](C)C(=O)N[C@@H](C)C(=O)O [compound 7] (H-AKEYAAAAAAKAAAA-OH),19 µM,–,4.5 µM,–
C[C@H](N)C(=O)N[C@@H](CCC(=O)O)C(=O)N[C@@H](CCC(=O)O)C(=O)N[C@@H](Cc1ccc(O)cc1)C(=O)N[C@@H](C)C(=O)N[C@@H](C)C(=O)N[C@@H](C)C(=O)N[C@@H](C)C(=O)N[C@@H](C)C(=O)N[C@@H](C)C(=O)N[C@@H](CCCCN)C(=O)N[C@@H](C)C(=O)N[C@@H](C)C(=O)N[C@@H](C)C(=O)N[C@@H](C)C(=O)O [compound 11],–,–,2 µM,–
C[C@H](N)C(=O)N[C@@H](C)C(=O)N[C@@H](CCC(=O)O)C(=O)N[C@@H](Cc1ccc(O)cc1)C(=O)N[C@@H](C)C(=O)N[C@@H](C)C(=O)N[C@@H](C)C(=O)N[C@@H](C)C(=O)N[C@@H](C)C(=O)N[C@@H](C)C(=O)N[C@@H](CCCCN)C(=O)N[C@@H](C)C(=O)N[C@@H](C)C(=O)N[C@@H](C)C(=O)N[C@@H](C)C(=O)O [compound 12],47 µM,–,3.2 µM,–
C[C@H](NC(=O)[C@H](C)NC(=O)[C@H](C)NC(=O)[C@H](C)NC(=O)[C@H](CCCCN)NC(=O)[C@H](C)NC(=O)[C@H](C)NC(=O)[C@H](C)NC(=O)[C@H](C)NC(=O)[C@H](C)NC(=O)[C@H](C)NC(=O)[C@H](Cc1ccc(O)cc1)NC(=O)[C@H](C)NC(=O)[C@H](CCCCN)NC(=O)[C@@H](N)CCC(=O)O)C(=O)O [compound 13] (H-EKAYAAAAAAKAAAA-OH),–,–,3.3 µM,–
C[C@H](N)C(=O)N[C@@H](C)C(=O)N[C@@H](CCCCN)C(=O)N[C@@H](Cc1ccc(O)cc1)C(=O)N[C@@H](CCC(=O)O)C(=O)N[C@@H](C)C(=O)N[C@@H](C)C(=O)N[C@@H](C)C(=O)N[C@@H](C)C(=O)N[C@@H](C)C(=O)N[C@@H](CCCCN)C(=O)N[C@@H](C)C(=O)N[C@@H](C)C(=O)N[C@@H](C)C(=O)N[C@@H](C)C(=O)O [compound 14] (H-AAKYEAAAAAKAAAA-OH),–,–,4 µM,–
C[C@H](N)C(=O)N[C@@H](C)C(=O)N[C@@H](CCCCN)C(=O)N[C@@H](Cc1ccc(O)cc1)C(=O)N[C@@H](C)C(=O)N[C@@H](CCC(=O)O)C(=O)N[C@@H](C)C(=O)N[C@@H](C)C(=O)N[C@@H](C)C(=O)N[C@@H](C)C(=O)N[C@@H](CCCCN)C(=O)N[C@@H](C)C(=O)N[C@@H](C)C(=O)N[C@@H](C)C(=O)N[C@@H](C)C(=O)O [compound 15] (H-AAKYAEAAAAKAAAA-OH),42 µM,16 µM,1.8 µM,< 1 µM
C[C@H](NC(=O)[C@H](C)NC(=O)[C@H](C)NC(=O)[C@H](C)NC(=O)[C@H](CCCCN)NC(=O)[C@H](C)NC(=O)[C@H](C)NC(=O)[C@H](C)NC(=O)[C@H](C)NC(=O)[C@H](C)NC(=O)[C@H](C)NC(=O)[C@H](Cc1ccc(O)cc1)NC(=O)[C@H](C)NC(=O)[C@H](C)NC(=O)[C@@H](N)CCC(=O)O)C(=O)O [compound 16] (H-EAAYAAAAAAKAAAA-OH),–,–,5 µM,–
C[C@H](NC(=O)[C@H](C)NC(=O)[C@H](C)NC(=O)[C@H](C)NC(=O)[C@H](CCCCN)NC(=O)[C@H](C)NC(=O)[C@H](C)NC(=O)[C@H](C)NC(=O)[C@H](C)NC(=O)[C@H](C)NC(=O)[C@H](C)NC(=O)[C@H](Cc1ccc(O)cc1)NC(=O)[C@H](CCCCN)NC(=O)[C@H](CCCCN)NC(=O)[C@@H](N)CCC(=O)O)C(=O)O [compound 17] (H-EKKYAAAAAAKAAAA-OH),–,–,1.8 µM,–
C[C@H](NC(=O)[C@H](C)NC(=O)[C@H](C)NC(=O)[C@H](C)NC(=O)[C@H](CCCCN)NC(=O)[C@H](C)NC(=O)[C@H](C)NC(=O)[C@H](C)NC(=O)[C@H](C)NC(=O)[C@H](C)NC(=O)[C@H](C)NC(=O)[C@H](Cc1ccc(O)cc1)NC(=O)[C@H](CCCCN)NC(=O)[C@H](C)NC(=O)[C@@H](N)CCC(=O)O)C(=O)O [compound 18] (H-EAKYAAAAAAKAAAA-OH),33 µM,–,4.4 µM,3 µM
C[C@H](N)C(=O)N[C@@H](CCCCN)C(=O)N[C@@H](CCCCN)C(=O)N[C@@H](Cc1ccc(O)cc1)C(=O)N[C@@H](CCC(=O)O)C(=O)N[C@@H](C)C(=O)N[C@@H](C)C(=O)N[C@@H](C)C(=O)N[C@@H](C)C(=O)N[C@@H](C)C(=O)N[C@@H](C)C(=O)N[C@@H](C)C(=O)N[C@@H](C)C(=O)N[C@@H](C)C(=O)N[C@@H](C)C(=O)O [compound 21],–,–,2.2 µM,–
C[C@H](N)C(=O)N[C@@H](C)C(=O)N[C@@H](CCC(=O)O)C(=O)N[C@@H](Cc1ccc(O)cc1)C(=O)N[C@@H](CCCCN)C(=O)N[C@@H](C)C(=O)N[C@@H](C)C(=O)N[C@@H](C)C(=O)N[C@@H](C)C(=O)N[C@@H](C)C(=O)N[C@@H](C)C(=O)N[C@@H](C)C(=O)N[C@@H](C)C(=O)N[C@@H](C)C(=O)N[C@@H](C)C(=O)O [compound 26],–,–,1.8 µM,–
C[C@H](N)C(=O)N[C@@H](CCC(=O)O)C(=O)N[C@@H](Cc1ccc(O)cc1)C(=O)N[C@@H](C)C(=O)N[C@@H](CCCCN)C(=O)N[C@@H](C)C(=O)N[C@@H](C)C(=O)N[C@@H](C)C(=O)N[C@@H](C)C(=O)N[C@@H](C)C(=O)N[C@@H](C)C(=O)N[C@@H](C)C(=O)N[C@@H](C)C(=O)N[C@@H](C)C(=O)N[C@@H](C)C(=O)O [compound 32],–,–,3 µM,–
C[C@H](N)C(=O)N[C@@H](CCC(=O)O)C(=O)N[C@@H](CCCCN)C(=O)N[C@@H](C)C(=O)N[C@@H](Cc1ccc(O)cc1)C(=O)N[C@@H](C)C(=O)N[C@@H](C)C(=O)N[C@@H](C)C(=O)N[C@@H](C)C(=O)N[C@@H](C)C(=O)N[C@@H](C)C(=O)N[C@@H](C)C(=O)N[C@@H](C)C(=O)N[C@@H](C)C(=O)N[C@@H](C)C(=O)O [compound 33],–,–,< 1 µM,–
C[C@H](N)C(=O)N[C@@H](Cc1ccc(O)cc1)C(=O)N[C@@H](CCCCN)C(=O)N[C@@H](C)C(=O)N[C@@H](CCC(=O)O)C(=O)N[C@@H](C)C(=O)N[C@@H](C)C(=O)N[C@@H](C)C(=O)N[C@@H](C)C(=O)N[C@@H](C)C(=O)N[C@@H](C)C(=O)N[C@@H](C)C(=O)N[C@@H](C)C(=O)N[C@@H](C)C(=O)N[C@@H](C)C(=O)O [compound 35],–,–,1.3 µM,–
C[C@H](N)C(=O)N[C@@H](CCCCN)C(=O)N[C@@H](Cc1ccc(O)cc1)C(=O)N[C@@H](C)C(=O)N[C@@H](CCC(=O)O)C(=O)N[C@@H](C)C(=O)N[C@@H](C)C(=O)N[C@@H](C)C(=O)N[C@@H](C)C(=O)N[C@@H](C)C(=O)N[C@@H](C)C(=O)N[C@@H](C)C(=O)N[C@@H](C)C(=O)N[C@@H](C)C(=O)N[C@@H](C)C(=O)O [compound 36],–,–,3 µM,–

# Source: patent US9066905B2, “Synthetic peptides and methods of use for autoimmune disease therapies” (President and Fellows of Harvard College, priority 1998, dated 2015)
